Reference: ChEMBL document CHEMBL1201862, “PubChem BioAssay data set” (2004)
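Assay format: 96-well plates, 48-hour exposure. At the GI50, growth is halved.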 Active and inactive are the calls of the source. No stated cut-off is given here; in the data, active = GI50 up to about 1.1 µM and inactive = higher.

Key:
Test in all cases: NCI anticancer screen, dose series, 48 h
[1] = system: SNB-19
[2] = system: NCI-H23
[3] = system: SK-MEL-5
[4] = system: SK-MEL-28
[5] = system: NCI-H522
[6] = system: SNB-75
[7] = system: SK-OV-3
[8] = system: MOLT-4
[9] = system: M14
[10] = system: SN12C
[11] = system: OVCAR-8
[12] = system: HT-29
[13] = system: K562
[14] = system: HL-60
[15] = system: HCC 2998
[16] = system: SR

Row | Compound | GI50 [1] | GI50 [2] | GI50 [3] | GI50 [4] | GI50 [5] | GI50 [6] | GI50 [7] | GI50 [8] | GI50 [9] | GI50 [10] | GI50 [11] | GI50 [12] | GI50 [13] | GI50 [14] | GI50 [15] | GI50 [16]
1 | Cc1cc(NS(=O)(=O)c2ccc(Nc3c4ccccc4nc4c(C(=O)Nc5ccc(S(N)(=O)=O)cc5)cccc34)cc2)no1 | 32.7 µM (inactive) | 47.5 µM (inactive) | 63.1 µM (inactive) | 28.9 µM (inactive) | 24.2 µM (inactive) | 72.8 µM (inactive) | > 100 µM (inactive) | 27 µM (inactive) | > 100 µM (inactive) | 36.2 µM (inactive) | 51.9 µM (inactive) | > 100 µM (inactive) | 44.3 µM (inactive) | – | – | –
2 | CC(C)(C)C1CCC2c3c([nH]c4ccccc34)C3C(=O)N(c4ccc(Br)cc4)C(=O)C3C2C1 (configuration not stated) | 16.9 µM (inactive) | 18.8 µM (inactive) | 25.8 µM (inactive) | 48.2 µM (inactive) | – | 19.5 µM (inactive) | – | 9.64 µM (inactive) | 26.1 µM (inactive) | 11.4 µM (inactive) | 21.7 µM (inactive) | 17.3 µM (inactive) | 15.7 µM (inactive) | 13.3 µM (inactive) | < 0.01 µM (active) | –
3 | CC(/C=C1\CCC(CN(C)C)C1=O)c1cccc(Br)c1 (configuration not stated) | 26 µM (inactive) | 19.5 µM (inactive) | 13.8 µM (inactive) | 17 µM (inactive) | 8.05 µM (inactive) | – | 65.2 µM (inactive) | 3.85 µM (inactive) | 14.9 µM (inactive) | 22 µM (inactive) | 18.2 µM (inactive) | 15.1 µM (inactive) | 2.77 µM (inactive) | 3.06 µM (inactive) | 20.4 µM (inactive) | –
4 | C#CCN(N=O)C(=O)NCCCCC(NC(=O)OCc1ccccc1)C(=O)OCc1ccccc1 (configuration not stated) | > 100 µM (inactive) | 34.6 µM (inactive) | 62.4 µM (inactive) | 49.5 µM (inactive) | 15.3 µM (inactive) | 46.3 µM (inactive) | > 100 µM (inactive) | 20.7 µM (inactive) | 27 µM (inactive) | 37.8 µM (inactive) | 38.9 µM (inactive) | 62.4 µM (inactive) | 23.3 µM (inactive) | 29.9 µM (inactive) | > 100 µM (inactive) | –
5 | Cc1cc(NS(=O)(=O)c2ccc(NC(=O)c3cccc4c(N)c5ccccc5nc34)cc2)no1 | 17.4 µM (inactive) | 21.8 µM (inactive) | > 10 µM (inactive) | 22.1 µM (inactive) | 17 µM (inactive) | 68.7 µM (inactive) | 32.5 µM (inactive) | 28.9 µM (inactive) | 27.5 µM (inactive) | 19.2 µM (inactive) | 21.8 µM (inactive) | 27.9 µM (inactive) | 31.2 µM (inactive) | – | – | –
6 | CC1OC(n2cc(Cl)c(=O)[nH]c2=O)C=C(OC(=O)c2ccccc2)C1=O (configuration not stated) | > 100 µM (inactive) | > 100 µM (inactive) | > 100 µM (inactive) | > 100 µM (inactive) | – | > 100 µM (inactive) | > 100 µM (inactive) | > 100 µM (inactive) | > 100 µM (inactive) | > 100 µM (inactive) | > 100 µM (inactive) | > 100 µM (inactive) | > 100 µM (inactive) | > 100 µM (inactive) | – | –
7 | Sc1nnc(/C=C/c2ccc(Cl)c(Cl)c2)[nH]1 | > 100 µM (inactive) | > 100 µM (inactive) | 44.8 µM (inactive) | > 100 µM (inactive) | 94 µM (inactive) | – | 0.0173 µM (active) | 59.4 µM (inactive) | – | > 100 µM (inactive) | > 100 µM (inactive) | > 100 µM (inactive) | > 100 µM (inactive) | > 100 µM (inactive) | < 0.01 µM (active) | –
8 | CCO/C=C1\N=C(C(Cl)c2ccccc2)OC1=O (configuration not stated) | > 100 µM (inactive) | > 100 µM (inactive) | > 100 µM (inactive) | > 100 µM (inactive) | > 100 µM (inactive) | > 100 µM (inactive) | – | > 100 µM (inactive) | > 100 µM (inactive) | > 100 µM (inactive) | > 100 µM (inactive) | > 100 µM (inactive) | > 100 µM (inactive) | > 100 µM (inactive) | > 100 µM (inactive) | –
9 | COc1nc(=O)cc(N)n1C1OC(CO)C(O)C1O (configuration not stated) | > 100 µM (inactive) | > 100 µM (inactive) | > 100 µM (inactive) | > 100 µM (inactive) | > 100 µM (inactive) | > 100 µM (inactive) | > 100 µM (inactive) | > 100 µM (inactive) | > 100 µM (inactive) | > 100 µM (inactive) | > 100 µM (inactive) | > 100 µM (inactive) | > 100 µM (inactive) | > 100 µM (inactive) | > 100 µM (inactive) | –
10 | C=C(c1ccccc1N)[C@@]1(O)C[C@H](/C(=C\C)CO)C[C@@H]1NCc1ccccc1 | 23.2 µM (inactive) | 29.9 µM (inactive) | 17.1 µM (inactive) | 18.3 µM (inactive) | 17.1 µM (inactive) | 10.8 µM (inactive) | 21.5 µM (inactive) | 18.2 µM (inactive) | 15.2 µM (inactive) | 32 µM (inactive) | 24.5 µM (inactive) | 17.5 µM (inactive) | 18.6 µM (inactive) | 13.3 µM (inactive) | 15.7 µM (inactive) | –
11 | S=P(c1ccccc1)(c1ccccc1)C1(C2(P(=S)(c3ccccc3)c3ccccc3)CC2)CC1 | > 100 µM (inactive) | > 100 µM (inactive) | > 100 µM (inactive) | > 100 µM (inactive) | > 100 µM (inactive) | > 100 µM (inactive) | – | > 100 µM (inactive) | > 100 µM (inactive) | > 100 µM (inactive) | > 100 µM (inactive) | > 100 µM (inactive) | > 100 µM (inactive) | – | > 100 µM (inactive) | > 100 µM (inactive)
12 | COC(=O)/C1=C/C2CC(/C=C(/c3ccccc3)C(=O)O1)C2 | 35.4 µM (inactive) | 17 µM (inactive) | 17.7 µM (inactive) | 23.8 µM (inactive) | 16.7 µM (inactive) | 5.93 µM (inactive) | 36.7 µM (inactive) | 17.5 µM (inactive) | 29.2 µM (inactive) | 24.4 µM (inactive) | 23.1 µM (inactive) | 26.9 µM (inactive) | 27.8 µM (inactive) | 22.5 µM (inactive) | – | –
13 | c1ccc2c(c1)c1ccccc1c1n[se]nc21 | 35.6 µM (inactive) | > 100 µM (inactive) | > 100 µM (inactive) | > 100 µM (inactive) | > 100 µM (inactive) | 28.1 µM (inactive) | 26 µM (inactive) | > 100 µM (inactive) | > 100 µM (inactive) | > 100 µM (inactive) | 50.2 µM (inactive) | 57 µM (inactive) | > 100 µM (inactive) | > 100 µM (inactive) | – | –
14 | NNC(=O)/C(=C/c1ccc(Cl)c(Cl)c1)NC(=O)c1ccccc1 | > 100 µM (inactive) | > 100 µM (inactive) | > 100 µM (inactive) | > 100 µM (inactive) | – | > 100 µM (inactive) | – | 80.5 µM (inactive) | > 100 µM (inactive) | > 100 µM (inactive) | > 100 µM (inactive) | > 100 µM (inactive) | – | > 100 µM (inactive) | > 100 µM (inactive) | –
